Data on one compound can be found in patent publication US6514967B1 (priority 1997, dated 2003).

For orientation: inhibition means the relative decrease from the control value, in per cent.

Series [1] can be described thus: Chemical test of capture of OH• radicals (deoxyribose competition). It counts as biochemical. The note with it: rate constant of reaction of the competitor with OH•; competition with 2-deoxyribose, UV at 532 nm. As to the method:
A) Chemical test of capture of OH^• radicals:
(Free Rad. Res. Comms., Vol. 14, Nos. 5-6, pp. 363-372)
[…] of buffer (30 mM Na2HPO4.7H2O, 40 mM NaCl, 0.1 mM EDTA), 125 ml of deoxyribose at 2.10^−3 mM and 125 ml of 4-times concentrated solution of radical inhibitor (final concentration from 0 to 0.5 mM) were placed in glass haemolysis tubes cooled on an ice bath. […] of FeSO4 at 10^−3 mM (in water) is added at time 0. After 15 min of incubation the reaction is stopped with 250 ml of trichloroacetic acid at 3%, to which is added 250 ml of solution of thiobarbituric acid at 1.5% (in water). The tubes are kept at 100° C. for 10 min then cooled for detection with UV at 532 nm. The linear relation A0/A=1+ks/dkr [(competitor)/(2-deoxyribose)] was used, where A0 and A denote the absorbances in the absence and in the presence of competitor, ks is the rate constant of reaction of the competitor with OH• and kdr=1.9*10^9 M^−1 sec^−1 is the rate constant of reaction of 2-deoxyribose with OH•. Thus ks is equal to the gradient of the straight line A0/A f((competitor)/(2-deoxyribose)) multiplied by kdr.

For a further series, the target named is xanthine oxidase (Homo sapiens, UniProt P47989). The experiment in a line: Action of the derivatives on xanthine oxidase. It counts as biochemical. On the procedure: Action of the derivatives on xanthine oxidase:
(Free Radical Biology & Medicine, Vol 20, No 1, pp.35-43, 1996)
[…] of xanthine 20 mM in soda 0.1N and […] of the test product in phosphate buffer at pH 7.4 were placed in a final volume of 2 ml. Reaction is started by adding […] of solution of xanthine oxidase at 0.56 U/ml. Formation of […] is monitored by UV spectroscopy at 290 nm. Allopurinol is a reference inhibitor.

A short description of series [2]: Concentration in brain and plasma after systemic injection. It counts as in vivo, rats of the Wistar strain. On the procedure:
Experimental preparation: [Amer. J. Physiol., 267 (1994) R164-R170]
Under general anaesthesia, catheters made from tubes of flexible and inert polyethylene PE50 (Clay Adams) are placed in the right carotid artery of male rats of the Wistar strain weighing 250 g, and are slid under the skin to emerge at the nape at a site that is inaccessible to the animal. The injections are carried out 5 days later, to allow the animals optimum post-operative recovery. This arrangement permits easy and very quick systemic injections on the animal while it is conscious.
At the specified time after injection, the animals are killed by decapitation. The brains are removed in less than a minute without further fractionation. The meninges are quickly separated and the brains are rinsed in a large volume of physiological serum before being frozen at −30° C. The blood is collected on EDTA in tubes maintained at 0° C. After centrifugation, the plasma is separated and aliquots are preserved at −30° C.
After thawing, the brains are weighed and homogenized in the cold in 3 volumes of NaOH (0.1N), using an Ultra-Turrax pulverizer. An internal standard, at a suitable concentration, is added to each sample to allow for individual variations in extraction. The pulverizates are directly extracted three times with a total of 6 volumes of ethyl acetate, followed each time by centrifugation at high speed.
Apart from the stage of pulverizing, the plasmas are treated similarly.
The extracts are filtered through a 0.22 μm Millipore membrane and, after evaporation of the solvent under a nitrogen stream, the dry extracts are stored at −30° C.
One of the compounds of the invention (IC 180), diluted in physiological serum, is injected at a concentration equal to 20 mg.kg^−1. […] Its concentration decreases by about 50% in the brain, 1 hour after injection. […] The ratio of the concentrations between the brain and the plasma therefore increases between 30 and 60 minutes after injection.

[3] abbreviates: 30 min after injection of 20 mg.kg^−1.
Where [4] appears, read: 1 hour after injection of 20 mg.kg^−1.

Sequence of xanthine oxidase (P47989 whole entry, species assumed): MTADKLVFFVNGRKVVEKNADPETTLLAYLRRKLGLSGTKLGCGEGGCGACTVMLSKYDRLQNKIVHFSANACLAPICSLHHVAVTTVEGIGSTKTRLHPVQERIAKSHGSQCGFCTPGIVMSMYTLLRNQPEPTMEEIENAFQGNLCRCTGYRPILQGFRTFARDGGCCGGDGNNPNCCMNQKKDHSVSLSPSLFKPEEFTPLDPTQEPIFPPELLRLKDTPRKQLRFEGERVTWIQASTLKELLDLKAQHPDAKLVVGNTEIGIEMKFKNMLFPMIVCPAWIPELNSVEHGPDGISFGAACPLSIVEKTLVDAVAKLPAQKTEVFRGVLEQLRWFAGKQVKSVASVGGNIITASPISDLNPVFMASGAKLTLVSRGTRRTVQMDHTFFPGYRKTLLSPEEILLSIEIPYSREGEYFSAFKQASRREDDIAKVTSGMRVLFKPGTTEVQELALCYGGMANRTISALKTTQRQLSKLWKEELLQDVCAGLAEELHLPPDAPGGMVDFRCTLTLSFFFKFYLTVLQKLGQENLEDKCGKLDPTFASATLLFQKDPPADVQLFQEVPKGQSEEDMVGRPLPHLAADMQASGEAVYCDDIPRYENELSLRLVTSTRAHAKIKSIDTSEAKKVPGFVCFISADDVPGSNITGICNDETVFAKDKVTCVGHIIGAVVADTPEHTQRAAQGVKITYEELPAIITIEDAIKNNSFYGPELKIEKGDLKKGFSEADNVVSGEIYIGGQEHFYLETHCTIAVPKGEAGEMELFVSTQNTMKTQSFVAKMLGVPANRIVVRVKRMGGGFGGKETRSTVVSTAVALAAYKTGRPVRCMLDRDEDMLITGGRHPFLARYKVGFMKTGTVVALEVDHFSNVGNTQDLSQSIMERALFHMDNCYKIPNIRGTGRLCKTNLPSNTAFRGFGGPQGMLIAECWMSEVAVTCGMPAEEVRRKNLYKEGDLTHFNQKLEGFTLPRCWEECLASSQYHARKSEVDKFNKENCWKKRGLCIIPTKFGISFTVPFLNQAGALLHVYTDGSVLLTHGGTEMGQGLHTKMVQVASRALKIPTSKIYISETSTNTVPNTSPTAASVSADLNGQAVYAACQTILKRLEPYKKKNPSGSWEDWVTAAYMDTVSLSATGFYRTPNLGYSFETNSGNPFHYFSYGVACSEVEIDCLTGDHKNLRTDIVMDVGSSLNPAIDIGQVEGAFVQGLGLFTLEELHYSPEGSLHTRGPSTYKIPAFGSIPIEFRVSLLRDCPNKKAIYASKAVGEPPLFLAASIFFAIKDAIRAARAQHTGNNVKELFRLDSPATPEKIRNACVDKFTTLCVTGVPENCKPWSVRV

With `c1cc2c(s1)CCCC2N1CCOCC1` (centres unmarked) [IC180, morpholine-4-tetrahydro-4,5,6,7-benzothiophene], the “ks (10^−9M^−1 sec^−1) (±SEM)” value in series [1] was 3.75 ± 0.33 10^−9M^−1 sec^−1. Moreover, the inhibition at 100 µM on xanthine oxidase (read-out: % inhibition 100 μM) is 0%. Also, at xanthine oxidase (read-out: % inhibition 500 μM), the inhibition at 500 µM came out at 2%. In series [2] (setting [3]), the “detection in the brain” value is “detected preferentially in the brain” and the “detection in the plasma” value is “clearly identifiable in the plasma”. In series [2] (setting [4]), the “decrease of concentration in the brain” value was “about 50%” and the “detection in the plasma” value is “can only be detected very slightly”. The “ratio of the concentrations between the brain and the plasma” value in series [2] (between 30 and 60 minutes after injection, FIG. 10) is listed as “increases”.
